Columns and labels:
Test in all cases: radiometric filter-binding kinase assay, Kinase HotSpot
Conditions in all cases: compound 0.5 µM; ATP 10 µM
ABL1 (human) = ABL1 (human) (UniProt P00519)
ADRBK2 (human) = ADRBK2 (human) (UniProt P35626)
CAMK2D (human) = CAMK2D (human) (UniProt Q13557)
CLK1 (human) = CLK1 (human) (UniProt P49759)
CLK3 (human) = CLK3 (human) (UniProt P49761)
EPHA8 (human) = EPHA8 (human) (UniProt P29322)
EPHB1 (human) = EPHB1 (human) (UniProt P54762)
EPHB2 (human) = EPHB2 (human) (UniProt P29323)
ERBB2 (human) = ERBB2 (human) (UniProt P04626)
GRK5 (human) = GRK5 (human) (UniProt P34947)
GRK7 (human) = GRK7 (human) (UniProt Q8WTQ7)
INSRR (human) = INSRR (human) (UniProt P14616)
ITK (human) = ITK (human) (UniProt Q08881)
LCK (human) = LCK (human) (UniProt P06239)
LTK (human) = LTK (human) (UniProt P29376)
LTK (human), sequence (P29376 whole entry, looked up): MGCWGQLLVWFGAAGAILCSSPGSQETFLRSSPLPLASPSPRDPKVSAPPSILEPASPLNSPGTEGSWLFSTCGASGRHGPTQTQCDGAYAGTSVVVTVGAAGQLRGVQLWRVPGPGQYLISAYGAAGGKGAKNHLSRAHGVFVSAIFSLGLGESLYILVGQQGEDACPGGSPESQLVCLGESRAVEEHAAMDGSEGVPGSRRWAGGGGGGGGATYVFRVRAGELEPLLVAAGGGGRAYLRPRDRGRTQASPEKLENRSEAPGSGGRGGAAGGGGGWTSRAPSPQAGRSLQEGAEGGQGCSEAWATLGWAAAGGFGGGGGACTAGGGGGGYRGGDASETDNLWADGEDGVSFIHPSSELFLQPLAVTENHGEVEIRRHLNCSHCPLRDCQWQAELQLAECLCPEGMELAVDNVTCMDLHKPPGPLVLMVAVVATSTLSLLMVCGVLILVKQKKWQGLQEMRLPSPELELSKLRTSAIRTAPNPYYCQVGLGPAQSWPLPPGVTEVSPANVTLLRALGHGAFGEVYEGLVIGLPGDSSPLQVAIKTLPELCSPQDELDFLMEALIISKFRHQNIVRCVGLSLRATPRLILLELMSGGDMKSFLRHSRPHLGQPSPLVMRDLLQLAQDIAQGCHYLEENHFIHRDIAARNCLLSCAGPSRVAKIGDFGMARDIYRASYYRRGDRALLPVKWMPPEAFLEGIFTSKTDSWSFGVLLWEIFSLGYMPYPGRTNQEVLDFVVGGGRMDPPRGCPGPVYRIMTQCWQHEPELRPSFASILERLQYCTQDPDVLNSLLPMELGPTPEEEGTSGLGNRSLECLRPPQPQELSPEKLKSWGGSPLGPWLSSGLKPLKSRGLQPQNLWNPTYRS

MAP2K1 (human) = MAP2K1 (human) (UniProt Q02750)
MAP2K1 (human), sequence (Q02750 whole entry, looked up): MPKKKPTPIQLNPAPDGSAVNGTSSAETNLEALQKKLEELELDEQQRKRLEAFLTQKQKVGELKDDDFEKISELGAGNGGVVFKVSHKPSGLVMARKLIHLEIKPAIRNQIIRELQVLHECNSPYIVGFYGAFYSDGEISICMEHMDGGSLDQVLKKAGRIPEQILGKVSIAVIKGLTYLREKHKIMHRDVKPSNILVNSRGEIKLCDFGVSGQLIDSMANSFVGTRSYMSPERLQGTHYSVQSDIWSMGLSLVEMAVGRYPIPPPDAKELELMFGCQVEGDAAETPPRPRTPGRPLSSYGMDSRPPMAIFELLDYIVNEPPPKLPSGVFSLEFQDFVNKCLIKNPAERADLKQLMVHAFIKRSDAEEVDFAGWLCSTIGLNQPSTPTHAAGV

MAPKAPK5 (human) = MAPKAPK5 (human) (UniProt Q8IW41)
MARK1 (human) = MARK1 (human) (UniProt Q9P0L2)
MST1R (human) = MST1R (human) (UniProt Q04912)
NEK11 (human) = NEK11 (human) (UniProt Q8NG66)
NEK11 (human), sequence (Q8NG66 whole entry, looked up): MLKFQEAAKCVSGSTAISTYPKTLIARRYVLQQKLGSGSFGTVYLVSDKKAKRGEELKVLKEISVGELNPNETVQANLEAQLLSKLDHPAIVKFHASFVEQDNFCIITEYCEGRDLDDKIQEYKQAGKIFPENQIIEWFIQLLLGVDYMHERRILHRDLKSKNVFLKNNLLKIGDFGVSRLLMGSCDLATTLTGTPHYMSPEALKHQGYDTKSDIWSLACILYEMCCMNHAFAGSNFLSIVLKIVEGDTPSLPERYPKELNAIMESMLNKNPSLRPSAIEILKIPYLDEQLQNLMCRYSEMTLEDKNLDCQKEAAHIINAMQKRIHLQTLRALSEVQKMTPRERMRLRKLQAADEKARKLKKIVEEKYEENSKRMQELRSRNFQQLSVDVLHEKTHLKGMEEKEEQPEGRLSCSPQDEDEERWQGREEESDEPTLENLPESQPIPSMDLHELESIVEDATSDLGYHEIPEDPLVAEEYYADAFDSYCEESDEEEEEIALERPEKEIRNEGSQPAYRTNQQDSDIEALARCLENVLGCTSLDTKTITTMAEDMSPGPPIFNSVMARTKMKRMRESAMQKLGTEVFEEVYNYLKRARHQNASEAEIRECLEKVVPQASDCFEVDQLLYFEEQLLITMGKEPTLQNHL

NEK3 (human) = NEK3 (human) (UniProt P51956)
NEK7 (human) = NEK7 (human) (UniProt Q8TDX7)
NEK7 (human), sequence (Q8TDX7 whole entry, looked up): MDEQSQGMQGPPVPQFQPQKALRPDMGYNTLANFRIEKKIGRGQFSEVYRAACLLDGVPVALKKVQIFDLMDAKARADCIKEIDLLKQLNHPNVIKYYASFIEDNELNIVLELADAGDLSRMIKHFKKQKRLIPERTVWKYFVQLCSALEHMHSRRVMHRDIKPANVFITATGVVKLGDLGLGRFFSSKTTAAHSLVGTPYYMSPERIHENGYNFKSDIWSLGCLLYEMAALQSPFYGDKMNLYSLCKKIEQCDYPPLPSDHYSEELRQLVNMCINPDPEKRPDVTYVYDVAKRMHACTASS

NTRK1 (human) = NTRK1 (human) (UniProt P04629)
PAK4 (human) = PAK4 (human) (UniProt O96013)
PAK4 (human), sequence (O96013 whole entry, looked up): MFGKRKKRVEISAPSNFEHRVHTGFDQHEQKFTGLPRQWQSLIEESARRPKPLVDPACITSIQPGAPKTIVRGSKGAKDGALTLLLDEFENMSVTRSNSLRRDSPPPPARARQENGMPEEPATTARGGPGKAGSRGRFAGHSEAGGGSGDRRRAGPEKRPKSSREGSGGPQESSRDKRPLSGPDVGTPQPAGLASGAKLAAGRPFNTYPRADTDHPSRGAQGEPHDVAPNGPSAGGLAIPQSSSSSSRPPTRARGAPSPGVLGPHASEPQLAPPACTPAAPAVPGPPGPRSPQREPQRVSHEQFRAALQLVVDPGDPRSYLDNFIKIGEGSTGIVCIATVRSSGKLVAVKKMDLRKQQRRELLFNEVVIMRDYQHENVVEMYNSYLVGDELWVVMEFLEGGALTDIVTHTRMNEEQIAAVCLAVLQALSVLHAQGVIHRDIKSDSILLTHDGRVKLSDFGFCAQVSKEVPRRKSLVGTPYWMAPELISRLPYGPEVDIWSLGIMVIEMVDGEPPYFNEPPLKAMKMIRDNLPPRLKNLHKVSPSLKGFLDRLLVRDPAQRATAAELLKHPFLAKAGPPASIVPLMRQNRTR

PASK (human) = PASK (human) (UniProt Q96RG2)
PDPK1 (human) = PDPK1 (human) (UniProt O15530)
PDPK1 (human), sequence (O15530 whole entry, looked up): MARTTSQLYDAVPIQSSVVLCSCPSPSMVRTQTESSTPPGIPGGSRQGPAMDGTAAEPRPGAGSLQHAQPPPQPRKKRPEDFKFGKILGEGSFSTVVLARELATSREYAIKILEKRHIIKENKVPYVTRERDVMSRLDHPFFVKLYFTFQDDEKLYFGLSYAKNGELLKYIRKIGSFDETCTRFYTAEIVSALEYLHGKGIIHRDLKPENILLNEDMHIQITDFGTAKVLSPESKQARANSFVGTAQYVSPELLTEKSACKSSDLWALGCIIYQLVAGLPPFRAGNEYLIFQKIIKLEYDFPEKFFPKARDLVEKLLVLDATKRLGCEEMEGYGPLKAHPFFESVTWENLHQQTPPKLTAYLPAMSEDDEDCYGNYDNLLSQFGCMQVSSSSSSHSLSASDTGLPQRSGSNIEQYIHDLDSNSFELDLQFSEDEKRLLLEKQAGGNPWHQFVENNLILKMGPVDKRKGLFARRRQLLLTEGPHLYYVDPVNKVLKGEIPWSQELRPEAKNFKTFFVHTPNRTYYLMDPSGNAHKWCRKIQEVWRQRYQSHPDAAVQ

PHKG1 (human) = PHKG1 (human) (UniProt Q16816)
PLK2 (human) = PLK2 (human) (UniProt Q9NYY3)
PRKCB2 (human) = PRKCB2 (human) (UniProt P05771)
PRKCB2 (human), sequence (P05771 whole entry, looked up): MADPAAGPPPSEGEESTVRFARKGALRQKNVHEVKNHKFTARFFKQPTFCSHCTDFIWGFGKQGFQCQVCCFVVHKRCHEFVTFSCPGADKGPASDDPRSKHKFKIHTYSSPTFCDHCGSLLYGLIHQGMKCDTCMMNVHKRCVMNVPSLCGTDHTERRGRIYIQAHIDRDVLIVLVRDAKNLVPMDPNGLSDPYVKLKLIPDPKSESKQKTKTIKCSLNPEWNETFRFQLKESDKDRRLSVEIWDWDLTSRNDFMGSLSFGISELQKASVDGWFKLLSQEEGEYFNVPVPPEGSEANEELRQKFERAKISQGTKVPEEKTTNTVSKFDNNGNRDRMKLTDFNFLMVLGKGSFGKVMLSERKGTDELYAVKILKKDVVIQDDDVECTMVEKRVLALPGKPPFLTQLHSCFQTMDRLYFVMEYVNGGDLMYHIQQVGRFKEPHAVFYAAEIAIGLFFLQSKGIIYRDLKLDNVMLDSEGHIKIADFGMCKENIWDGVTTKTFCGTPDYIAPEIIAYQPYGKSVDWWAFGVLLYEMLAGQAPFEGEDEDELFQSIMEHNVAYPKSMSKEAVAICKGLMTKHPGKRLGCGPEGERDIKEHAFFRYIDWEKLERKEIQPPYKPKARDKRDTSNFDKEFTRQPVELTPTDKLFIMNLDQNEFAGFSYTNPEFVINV

PRKD1 (human) = PRKD1 (human) (UniProt Q15139)
PRKD2 (human) = PRKD2 (human) (UniProt Q9BZL6)
PRKX (human) = PRKX (human) (UniProt P51817)
ROCK2 (human) = ROCK2 (human) (UniProt O75116)
RPS6KA3 KD1 KD2 (human) = RPS6KA3 KD1 KD2 (human) (UniProt P51812)
RPS6KB1 (human) = RPS6KB1 (human) (UniProt P23443)
SGK3 (human) = SGK3 (human) (UniProt Q96BR1)
SRPK3 (human) = SRPK3 (human) (UniProt Q9UPE1)
STK4 (human) = STK4 (human) (UniProt Q13043)
TAOK1 (human) = TAOK1 (human) (UniProt Q7L7X3)
TAOK1 (human), sequence (Q7L7X3 whole entry, looked up): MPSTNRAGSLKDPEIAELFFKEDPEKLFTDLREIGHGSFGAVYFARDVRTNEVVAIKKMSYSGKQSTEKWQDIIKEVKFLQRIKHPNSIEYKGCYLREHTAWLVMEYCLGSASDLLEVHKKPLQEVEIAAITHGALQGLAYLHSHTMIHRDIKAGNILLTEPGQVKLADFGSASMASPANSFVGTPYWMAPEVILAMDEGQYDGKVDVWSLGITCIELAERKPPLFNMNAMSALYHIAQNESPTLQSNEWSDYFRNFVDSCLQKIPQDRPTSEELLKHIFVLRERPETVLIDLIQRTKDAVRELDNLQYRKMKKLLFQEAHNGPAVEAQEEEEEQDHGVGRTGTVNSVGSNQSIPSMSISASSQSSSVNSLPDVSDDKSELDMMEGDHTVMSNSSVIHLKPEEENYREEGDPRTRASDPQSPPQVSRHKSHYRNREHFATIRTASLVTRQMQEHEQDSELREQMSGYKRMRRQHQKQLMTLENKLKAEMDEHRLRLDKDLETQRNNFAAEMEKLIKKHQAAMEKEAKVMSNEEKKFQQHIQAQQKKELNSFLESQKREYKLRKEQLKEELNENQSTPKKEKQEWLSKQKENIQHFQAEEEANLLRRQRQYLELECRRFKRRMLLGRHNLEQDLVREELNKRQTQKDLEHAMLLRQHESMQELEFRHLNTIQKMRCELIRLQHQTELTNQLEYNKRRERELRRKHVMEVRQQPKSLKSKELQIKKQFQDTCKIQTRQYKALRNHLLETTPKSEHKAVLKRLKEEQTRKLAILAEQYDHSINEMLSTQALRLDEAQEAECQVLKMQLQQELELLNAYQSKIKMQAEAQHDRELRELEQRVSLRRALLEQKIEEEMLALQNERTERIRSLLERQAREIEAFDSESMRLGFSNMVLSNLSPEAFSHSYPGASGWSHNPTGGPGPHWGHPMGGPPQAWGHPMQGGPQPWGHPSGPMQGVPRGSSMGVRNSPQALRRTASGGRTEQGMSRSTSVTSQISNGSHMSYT

TEK (human) = TEK (human) (UniProt Q02763)
TTK (human) = TTK (human) (UniProt P33981)
TYRO3 (human) = TYRO3 (human) (UniProt Q06418)

For `CN(C)CCCn1cc(C2=C(c3c[nH]c4ccccc34)C(=O)NC2=O)c2ccccc21`, the residual activity (ABL1 (human)) was 103%, the residual activity (ADRBK2 (human)) was 99% and the residual activity (CAMK2D (human)) was 38.7%. It also gave a residual activity (CLK1 (human)) of 60.3%, a residual activity (CLK3 (human)) of 94.3% and a residual activity (EPHA8 (human)) of 103%. It also gave a residual activity (EPHB1 (human)) of 87.4%, a residual activity (EPHB2 (human)) of 100% and a residual activity (ERBB2 (human)) of 96.5%. For the same compound, the residual activity (GRK5 (human)) was 71.6%, the residual activity (GRK7 (human)) was 60.4% and the residual activity (INSRR (human)) was 91.3%. For the same compound, the residual activity (ITK (human)) was 102%, the residual activity (LCK (human)) was 91.8% and the residual activity (LTK (human)) was 99.5%. The residual activity (MAP2K1 (human)) was 83.6%, the residual activity (MAPKAPK5 (human)) was 93.7% and the residual activity (MARK1 (human)) was 84.1%. It also gave a residual activity (MST1R (human)) of 109%, a residual activity (NEK11 (human)) of 104% and a residual activity (NEK3 (human)) of 110%. It also gave a residual activity (NEK7 (human)) of 87.1%, a residual activity (NTRK1 (human)) of 108% and a residual activity (PAK4 (human)) of 93.6%. The residual activity (PASK (human)) was 67%, the residual activity (PDPK1 (human)) was 83.3% and the residual activity (PHKG1 (human)) was 31.9%. The residual activity (PLK2 (human)) was 97.3%, the residual activity (PRKCB2 (human)) was 12.6% and the residual activity (PRKD1 (human)) was 71.6%. For the same compound, the residual activity (PRKD2 (human)) was 78.8%, the residual activity (PRKX (human)) was 85.3% and the residual activity (ROCK2 (human)) was 113%. The residual activity (RPS6KA3 KD1 KD2 (human)) was 2.47%, the residual activity (RPS6KB1 (human)) was 11.6% and the residual activity (SGK3 (human)) was 72.8%. The residual activity (SRPK3 (human)) was 86.9%, the residual activity (STK4 (human)) was 25.1% and the residual activity (TAOK1 (human)) was 80.8%. The residual activity (TEK (human)) was 99.7%, the residual activity (TTK (human)) was 98.2% and the residual activity (TYRO3 (human)) was 97.2%.

`O=C1NC(=O)c2c1c1c3ccccc3[nH]c1n1cncc21` was tested, and the residual activity (ABL1 (human)) was 85.6%, the residual activity (ADRBK2 (human)) was 109% and the residual activity (CAMK2D (human)) was 36.7%. The residual activity (CLK1 (human)) was 84%, the residual activity (CLK3 (human)) was 48.2% and the residual activity (EPHA8 (human)) was 97.5%. The residual activity (EPHB1 (human)) was 94%, the residual activity (EPHB2 (human)) was 86.1% and the residual activity (ERBB2 (human)) was 109%. The residual activity (GRK5 (human)) was 94.4%, the residual activity (GRK7 (human)) was 96.2% and the residual activity (INSRR (human)) was 20.7%. The residual activity (ITK (human)) was 71.4%, the residual activity (LCK (human)) was 87.1% and the residual activity (LTK (human)) was 80.8%. It also gave a residual activity (MAP2K1 (human)) of 102%, a residual activity (MAPKAPK5 (human)) of 123% and a residual activity (MARK1 (human)) of 36.7%. For the same compound, the residual activity (MST1R (human)) was 102%, the residual activity (NEK11 (human)) was 99% and the residual activity (NEK3 (human)) was 89.3%. The residual activity (NEK7 (human)) was 80.3%, the residual activity (NTRK1 (human)) was 89.8% and the residual activity (PAK4 (human)) was 97.1%. For the same compound, the residual activity (PASK (human)) was 33.6%, the residual activity (PDPK1 (human)) was 89% and the residual activity (PHKG1 (human)) was 70.8%. The residual activity (PLK2 (human)) was 63.8%, the residual activity (PRKCB2 (human)) was 94.7% and the residual activity (PRKD1 (human)) was 61.4%. It also gave a residual activity (PRKD2 (human)) of 69.4%, a residual activity (PRKX (human)) of 87.8% and a residual activity (ROCK2 (human)) of 93.2%. For the same compound, the residual activity (RPS6KA3 KD1 KD2 (human)) was 47.4%, the residual activity (RPS6KB1 (human)) was 70.6% and the residual activity (SGK3 (human)) was 111%. For the same compound, the residual activity (SRPK3 (human)) was 75.7%, the residual activity (STK4 (human)) was 42.7% and the residual activity (TAOK1 (human)) was 135%. For the same compound, the residual activity (TEK (human)) was 78.9%, the residual activity (TTK (human)) was 79% and the residual activity (TYRO3 (human)) was 88.8%.

In the case of `Cc1cccc(-c2nc(C(C)(C)C)[nH]c2-c2ccc3c(c2)OCO3)n1`, the residual activity (ABL1 (human)) is reported as 100%, the residual activity (ADRBK2 (human)) is reported as 96.3% and the residual activity (CAMK2D (human)) is reported as 100%. For the same compound, the residual activity (CLK1 (human)) was 98%, the residual activity (CLK3 (human)) was 104% and the residual activity (EPHA8 (human)) was 89.9%. The residual activity (EPHB1 (human)) was 95.5%, the residual activity (EPHB2 (human)) was 93% and the residual activity (ERBB2 (human)) was 102%. The residual activity (GRK5 (human)) was 108%, the residual activity (GRK7 (human)) was 103% and the residual activity (INSRR (human)) was 95.1%. The residual activity (ITK (human)) was 95.8%, the residual activity (LCK (human)) was 97.9% and the residual activity (LTK (human)) was 99.2%. The residual activity (MAP2K1 (human)) was 93.3%, the residual activity (MAPKAPK5 (human)) was 96.1% and the residual activity (MARK1 (human)) was 85.1%. The residual activity (MST1R (human)) was 101%, the residual activity (NEK11 (human)) was 90.3% and the residual activity (NEK3 (human)) was 85.6%. The residual activity (NEK7 (human)) was 106%, the residual activity (NTRK1 (human)) was 96.5% and the residual activity (PAK4 (human)) was 77.5%. For the same compound, the residual activity (PASK (human)) was 78.9%, the residual activity (PDPK1 (human)) was 89.8% and the residual activity (PHKG1 (human)) was 87.6%. The residual activity (PLK2 (human)) was 92.1%, the residual activity (PRKCB2 (human)) was 99.9% and the residual activity (PRKD1 (human)) was 92.3%. The residual activity (PRKD2 (human)) was 93.6%, the residual activity (PRKX (human)) was 95% and the residual activity (ROCK2 (human)) was 104%. It also gave a residual activity (RPS6KA3 KD1 KD2 (human)) of 82.4%, a residual activity (RPS6KB1 (human)) of 95.9% and a residual activity (SGK3 (human)) of 98%. It also gave a residual activity (SRPK3 (human)) of 95.1%, a residual activity (STK4 (human)) of 98.7% and a residual activity (TAOK1 (human)) of 97.6%. It also gave a residual activity (TEK (human)) of 95.2%, a residual activity (TTK (human)) of 89% and a residual activity (TYRO3 (human)) of 102%.

`COc1ccc(C(=O)Nc2sc3c(c2C(N)=O)CCCC3)cc1OC` gave a residual activity (ABL1 (human)) of 101%, a residual activity (ADRBK2 (human)) of 103% and a residual activity (CAMK2D (human)) of 104%. It also gave a residual activity (CLK1 (human)) of 96.9%, a residual activity (CLK3 (human)) of 63% and a residual activity (EPHA8 (human)) of 114%. It also gave a residual activity (EPHB1 (human)) of 95%, a residual activity (EPHB2 (human)) of 73.5% and a residual activity (ERBB2 (human)) of 93.3%. For the same compound, the residual activity (GRK5 (human)) was 104%, the residual activity (GRK7 (human)) was 95.5% and the residual activity (INSRR (human)) was 99.7%. For the same compound, the residual activity (ITK (human)) was 99.6%, the residual activity (LCK (human)) was 93.8% and the residual activity (LTK (human)) was 40.5%. For the same compound, the residual activity (MAP2K1 (human)) was 99.1%, the residual activity (MAPKAPK5 (human)) was 86.4% and the residual activity (MARK1 (human)) was 97.9%. For the same compound, the residual activity (MST1R (human)) was 105%, the residual activity (NEK11 (human)) was 102% and the residual activity (NEK3 (human)) was 95.8%. For the same compound, the residual activity (NEK7 (human)) was 99%, the residual activity (NTRK1 (human)) was 104% and the residual activity (PAK4 (human)) was 95.9%. It also gave a residual activity (PASK (human)) of 101%, a residual activity (PDPK1 (human)) of 87.8% and a residual activity (PHKG1 (human)) of 94.3%. It also gave a residual activity (PLK2 (human)) of 106%, a residual activity (PRKCB2 (human)) of 93.5% and a residual activity (PRKD1 (human)) of 99.6%. It also gave a residual activity (PRKD2 (human)) of 99.4%, a residual activity (PRKX (human)) of 101% and a residual activity (ROCK2 (human)) of 92.3%. The residual activity (RPS6KA3 KD1 KD2 (human)) was 93%, the residual activity (RPS6KB1 (human)) was 84.3% and the residual activity (SGK3 (human)) was 103%. For the same compound, the residual activity (SRPK3 (human)) was 92%, the residual activity (STK4 (human)) was 104% and the residual activity (TAOK1 (human)) was 95.5%. For the same compound, the residual activity (TEK (human)) was 96.4%, the residual activity (TTK (human)) was 95.6% and the residual activity (TYRO3 (human)) was 98.1%.

From the kinase profiling compilation of Christmann-Franck et al. (2016)
